Assay results published in patent publication US6869783B1, “Method for producing chiral carboxylic acids from nitriles with the assistance of a nitrilase or microoganisms which contain a gene for the nitrilase” (BASF Aktiengesellschaft, priority 1998, dated 2005).

Test system: nitrilase 1650
Assay: Conversion of various nitriles with nitrilase 1650 (NH4 ions in supernatant, microtiter plate)
Format: biochemical, Alcaligenes faecalis 1650
Set-up: Activity: unit not given here
Details: pH 7.2
[1] = 10 mM substrate, 2 g/l dry biomass, 30° C, 2 hours

| Compound | % conversion [%] | Activity | μmol/l (amount of NH4 ions produced in the supernatant) [µmol/L] | % conversion [1] [%] | Activity [1] | μmol/l (amount of NH4 ions produced in the supernatant) (10 mM substrate, 2 g/l dry biomass, 30° C, 2 hours, average of a microtiter plate row) [µmol/L] |
| --- | --- | --- | --- | --- | --- | --- |
| CCC(C#N)c1ccccc1 (stereo not shown) [Substrate 3, 2-phenylbutyronitrile] | 44.3 | 0.1 | 24.4 |  |  |  |
| α-(3-heptyl)-nitro-triacetonitrile [Substrate 14] |  |  |  | 44.1 | 0.35 | 84.8 |
| CC(C#N)c1ccccc1 (stereo not shown) [Substrate 2, 2-phenylpropionitrile] | 70.2 | 4.1 | 1001.1 |  |  |  |
| N#CCc1ccc(Cl)cc1 [Substrate 5, 4-chlorobenzyl cyanide] | 100 | 8.9 | 2136.3 |  |  |  |
| N#CCc1ccc(Br)cc1 [Substrate 6, 4-bromobenzyl cyanide] | 100 | 6.2 | 1500.8 |  |  |  |
| N#CCc1ccccc1 [Substrate 4, benzyl cyanide] | 100 | 9.2 | 2210.5 |  |  |  |
| CCC#N [Substrate 7, propionitrile] |  | 0.02 | 4.9 |  |  |  |
| CCCCC#N [Substrate 10, valeronitrile] |  | 0.47 | 113.4 |  |  |  |
